Biological target: T1, human androgen receptor (AR) (Homo sapiens, UniProt P10275)
T1 sequence (P10275 1-920): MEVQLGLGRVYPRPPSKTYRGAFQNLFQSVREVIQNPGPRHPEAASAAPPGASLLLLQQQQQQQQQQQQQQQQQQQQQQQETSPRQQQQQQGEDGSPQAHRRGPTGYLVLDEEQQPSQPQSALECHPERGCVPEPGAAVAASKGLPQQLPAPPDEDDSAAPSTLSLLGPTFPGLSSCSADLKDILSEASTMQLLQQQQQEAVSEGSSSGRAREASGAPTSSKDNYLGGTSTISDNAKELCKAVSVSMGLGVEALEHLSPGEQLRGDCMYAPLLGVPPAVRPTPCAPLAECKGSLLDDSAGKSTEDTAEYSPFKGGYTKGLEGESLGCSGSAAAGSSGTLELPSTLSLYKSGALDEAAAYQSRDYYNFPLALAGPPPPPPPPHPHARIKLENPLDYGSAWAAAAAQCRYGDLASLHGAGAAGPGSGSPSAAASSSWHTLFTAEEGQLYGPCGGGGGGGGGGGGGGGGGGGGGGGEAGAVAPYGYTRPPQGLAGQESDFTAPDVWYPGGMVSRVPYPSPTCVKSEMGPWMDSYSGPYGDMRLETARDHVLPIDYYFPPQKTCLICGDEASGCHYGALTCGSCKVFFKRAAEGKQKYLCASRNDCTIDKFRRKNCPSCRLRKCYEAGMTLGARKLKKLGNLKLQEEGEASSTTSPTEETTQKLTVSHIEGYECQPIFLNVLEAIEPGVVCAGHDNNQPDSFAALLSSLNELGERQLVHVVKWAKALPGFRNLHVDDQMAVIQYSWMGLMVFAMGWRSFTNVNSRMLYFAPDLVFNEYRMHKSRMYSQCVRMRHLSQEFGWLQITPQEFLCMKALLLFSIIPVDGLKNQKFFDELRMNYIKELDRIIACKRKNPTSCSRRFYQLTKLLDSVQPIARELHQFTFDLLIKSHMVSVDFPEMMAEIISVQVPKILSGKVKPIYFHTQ
Test: Nuclear hormone receptor panel screen (luciferase reporter, HEK293), AR
Type: cell-based
Excerpt: Aldosterone exerts it physiological effects through interaction with the mineralocorticoid receptor. Following cytoplasmic binding of aldosterone to MR, the ligand receptor complex translocates to the cell nucleus where it binds to hormone response elements on DNA to initiate expression of target genes. […] The solvents, reagents, and ligands employed in the functional assay are readily available from commercial sources, or can be prepared by one of ordinary skill in the art.
Human embryonic kidney HEK293 cells are transfected with steroid hormone receptor and reporter gene plasmids using a suitable transfection reagent such as Fugene™. […] After 24 hours incubation with test compounds, cells are lysed and luciferase activity is determined using standard techniques.
Data are fitted to a four parameter-fit logistic curve to determine EC50 values. […] IC50 values are determined similarly using antagonist mode assay data. In the antagonist mode, percent inhibitions are determined by comparing test compound activity in the presence of low concentration of agonist (0.08 nM aldosterone for MR, 0.25 nM dexamethasone for GR, 0.66 nM of methyltrienolone for AR, and 0.08 nM of promegestone for PR) to the response produced by the same low concentration of agonist in the absence of test compound.

EC50 (agonist mode): > 10 µM
IC50 (antagonist mode, 0.66 nM methyltrienolone): > 10 µM
SMILES: O=c1[nH]c2cc(/C=C3\c4ccccc4COc4cc(F)ccc43)ccc2n1[C@@H]1C[C@@H]2COCCN2C1 [Compound (I), 5-((E)-(3-fluorodibenzo[b,e]oxepin-11(6H)-ylidene)methyl)-1-((7R,8aR)-hexahydro-1H-pyrrolo[2,1-c][1,4]oxazin-7-yl)-1H-benzo[d]imidazol-2(3H)-one]

— patent US8658638B2, “Mineralocorticoid receptor antagonist and methods of use” (priority 2009, dated 2014)
